How the values were obtained:
human androgen receptor [1] = biological target: T1, human androgen receptor (Homo sapiens, UniProt P10275); experiment: cell-based; conditions: in the presence of 1 nM DHT
T1 construct: expressed in transfected cells; host or cells: CHO cells, cell line CHO-AR-pMMTV-LUC 1G12-A5-CA
T1 sequence (P10275 1-920): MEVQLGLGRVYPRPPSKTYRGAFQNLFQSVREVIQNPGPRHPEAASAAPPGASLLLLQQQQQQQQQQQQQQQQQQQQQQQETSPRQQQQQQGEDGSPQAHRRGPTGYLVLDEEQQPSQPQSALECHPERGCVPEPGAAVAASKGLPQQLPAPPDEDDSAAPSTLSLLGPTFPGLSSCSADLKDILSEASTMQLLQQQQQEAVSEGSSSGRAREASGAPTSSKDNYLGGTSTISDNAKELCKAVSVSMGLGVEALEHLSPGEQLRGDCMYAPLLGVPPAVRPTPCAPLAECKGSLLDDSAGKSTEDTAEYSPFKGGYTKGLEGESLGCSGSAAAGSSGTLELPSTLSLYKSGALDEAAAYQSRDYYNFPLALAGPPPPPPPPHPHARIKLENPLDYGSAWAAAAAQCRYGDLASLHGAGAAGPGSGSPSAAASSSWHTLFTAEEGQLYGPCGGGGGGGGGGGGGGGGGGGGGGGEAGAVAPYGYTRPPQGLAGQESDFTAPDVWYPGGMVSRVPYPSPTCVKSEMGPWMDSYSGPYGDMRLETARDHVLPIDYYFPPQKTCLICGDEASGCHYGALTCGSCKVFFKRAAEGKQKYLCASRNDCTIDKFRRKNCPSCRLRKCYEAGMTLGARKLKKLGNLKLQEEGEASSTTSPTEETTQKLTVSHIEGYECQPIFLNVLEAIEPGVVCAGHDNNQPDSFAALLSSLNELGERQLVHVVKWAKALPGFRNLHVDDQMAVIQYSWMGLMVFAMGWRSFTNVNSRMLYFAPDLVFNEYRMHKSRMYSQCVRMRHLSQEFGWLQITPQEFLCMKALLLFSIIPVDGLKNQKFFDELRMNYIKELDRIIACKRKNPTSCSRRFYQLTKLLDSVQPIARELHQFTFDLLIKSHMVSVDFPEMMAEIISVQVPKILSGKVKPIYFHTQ
Experimental: (§1) Compounds were tested for their Androgen Receptor activity in a transactivation assay and in a binding assay.
(§2) The (anti-)androgenic activity of test compounds (EC50 and intrinsic activity) was determined in an in vitro bioassay of Chinese hamster ovary (CHO) cells stably transfected with the human androgen receptor expression plasmid and a reporter plasmid in which the MMTV-promoter is linked to the luciferase reporter gene. The cell-line CHO-AR-pMMTV-LUC 1G12-A5-CA is described in Schoonen et al. (2000), Journal of Steroid Biochemistry and Molecular Biology 74(4):213-222. The antiandrogenic activity of a test compound was determined by the inhibition of the transactivation via the androgen receptor of the enzyme luciferase in the presence of 1 nM DHT (5α-dihydrotestosterone, 17β-hydroxy-5α-androstan-3-one). Intrinsic activity of antiandrogenic activity was determined in the presence of the reference antiandrogen 2-Hydroxy-2-methyl-N-(4-nitro-3-trifluoromethyl-phenyl)-propionamide(Hydroxyflutamide), and set at 100%. For androgenic activity, maximal intrinsic activity in the presence of 100 nM DHT was set at 100%.

human androgen receptor [2] = biological target: T1, human androgen receptor; experiment: androgenic activity (EC50 and intrinsic activity), transactivation bioassay in CHO-AR-pMMTV-LUC cells (Table 4); format: cell-based
Experimental: as §1, §2

[3] = antiandrogenic activity, read-out: ant EC50
[4] = androgenic activity, read-out: ago EC50
[5] = ant EC50, antiandrogenic activity

Compound | EC50 (human androgen receptor [1]; [3]) [nM] | EC50 (human androgen receptor [2]; [4]) [nM] | EC50 (human androgen receptor [1]; [5]) [nM] | EC50 (human androgen receptor [2]; ago EC50, androgenic activity) [nM] | ant efficacy (human androgen receptor [1]; reference antiandrogen Hydroxyflutamide set at 100%)
O=[N+]([O-])c1ccccc1Sc1cn(Cc2cc(F)cc(F)c2)c2cccc(Cl)c12 [Compound 54] | > 10000 | 5 to 100 | – | – | –
CN(C)C(=O)c1ccc2c(Sc3ccccc3[N+](=O)[O-])cn(Cc3cc(F)cc(F)c3)c2c1 [Compound 49] | > 10000 | < 5 | – | – | –
COc1ccc2c(Sc3ccccc3C#N)cn(Cc3cc(F)cc(F)c3)c2c1 [Compound 20, 2-[1-(3,5-Difluoro-benzyl)-6-methoxy-1H-indol-3-ylsulfanyl]-benzonitrile] | > 10000 | 5 to 100 | – | – | –
O=[N+]([O-])c1ccccc1Sc1cn(Cc2cc(F)cc(F)c2)c2cc(C(F)(F)F)ccc12 [Compound 23] | > 10000 | < 5 | – | – | –
O=[N+]([O-])c1ccccc1Sc1cn(Cc2cc(F)cc(F)c2)c2ccccc12 [Compound 52] | > 10000 | 5 to 100 | – | – | –
CN(C)C(=O)CNC(=O)c1ccc2c(Sc3ccccc3[N+](=O)[O-])cn(Cc3cc(F)cc(F)c3)c2c1 [Compound 40] | > 10000 | 5 to 100 | – | – | –
COc1ccc2c(Sc3ccccc3[N+](=O)[O-])cn(Cc3cccc(C)c3)c2c1 [Compound 73] | > 10000 | 5 to 100 | – | – | –
COc1ccc2c(Sc3ccccc3[N+](=O)[O-])cn(Cc3cc(Cl)cc(Cl)c3)c2c1 [Compound 15] | > 10000 | 5 to 100 | – | – | –
O=[N+]([O-])c1ccccc1Sc1cn(Cc2cc(F)cc(F)c2)c2cc(CO)ccc12 [Compound 24] | > 10000 | 5 to 100 | – | – | –
COc1ccc2c(Sc3ccccc3[N+](=O)[O-])cn(Cc3ccc(C#N)cc3)c2c1 [Compound 82] | > 10000 | 5 to 100 | – | – | –
O=C(NC1CC1)c1ccc2c(Sc3ccccc3[N+](=O)[O-])cn(Cc3cc(F)cc(F)c3)c2c1 [Compound 44] | > 10000 | < 5 | – | – | –
COc1ccc2c(Sc3ccccc3[N+](=O)[O-])cn(Cc3cc(F)ccc3F)c2c1 [Compound 1] | > 10000 | 5 to 100 | – | – | –
O=C(O)c1ccc2c(Sc3ccccc3[N+](=O)[O-])cn(Cc3cc(F)cc(F)c3)c2c1 [Compound 30, 1-(3,5-Difluoro-benzyl)-3-(2-nitro-phenylsulfanyl)-1H-indole-6-carboxylic acid] | > 10000 | < 1000 | – | – | –
CC(C)CNC(=O)c1ccc2c(Sc3ccccc3[N+](=O)[O-])cn(Cc3cc(F)cc(F)c3)c2c1 [Compound 42] | > 10000 | 5 to 100 | – | – | –
O=[N+]([O-])c1ccccc1Sc1cn(Cc2cc(F)cc(F)c2)c2cc(Cl)ccc12 [Compound 25] | > 10000 | < 5 | – | – | –
O=[N+]([O-])c1ccccc1Sc1cn(Cc2cc(F)cc(F)c2)c2cc(O)ccc12 [Compound 61, 1-(3,5-Difluoro-benzyl)-3-(2-nitro-phenylsulfanyl)-1H-indol-6-ol] | – | < 5 | – | – | –
COc1ccc2c(Sc3ccccc3[N+](=O)[O-])cn(CC3CCCCC3)c2c1 [Compound 89] | < 5 | 5 to 100 | – | – | –
COc1ccc2c(Sc3ccccc3[N+](=O)[O-])cn(Cc3cnc(Cl)s3)c2c1 [Compound 87] | > 10000 | 5 to 100 | – | – | –
O=[N+]([O-])c1ccccc1Sc1cn(Cc2cc(F)cc(F)c2)c2cccc(F)c12 [Compound 51] | > 10000 | < 5 | – | – | –
N#Cc1ccc2c(Sc3ccccc3[N+](=O)[O-])cn(Cc3cc(F)cc(F)c3)c2c1 [Compound 26, 1-(3,5-Difluoro-benzyl)-3-(2-nitro-phenylsulfanyl)-1H-indole-6-carbonitrile] | > 10000 | < 5 | – | – | –
COc1ccc2c(Sc3ccccc3[N+](=O)[O-])cn(Cc3cccc(C(F)(F)F)c3)c2c1 [Compound 78] | > 10000 | 5 to 100 | – | – | –

Compound | EC50 (human androgen receptor [1]; [3]) [nM] | EC50 (human androgen receptor [2]; [4]) [nM] | EC50 (human androgen receptor [1]; [5]) [nM] | EC50 (human androgen receptor [2]; ago EC50, androgenic activity) [nM] | ant efficacy (human androgen receptor [1]; reference antiandrogen Hydroxyflutamide set at 100%)
COC(=O)c1ccccc1Sc1cn(Cc2cc(F)cc(F)c2)c2cc(OC)ccc12 [Compound 19, 2-[1-(3,5-Difluoro-benzyl)-6-methoxy-1H-indol-3-ylsulfanyl]-benzoic acid methyl ester] | > 10000 | < 1000 | – | – | –
COc1ccc2c(Sc3ccccc3[N+](=O)[O-])cn(Cc3ccccc3[N+](=O)[O-])c2c1 [Compound 8] | – | – | > 10000 | 5 to 100 | –
COc1ccc2c(Sc3ccccc3[N+](=O)[O-])cn(Cc3ccccc3)c2c1 [Compound 92] | > 10000 | < 5 | – | – | –
COC(=O)CNC(=O)c1ccc2c(Sc3ccccc3[N+](=O)[O-])cn(Cc3cc(F)cc(F)c3)c2c1 [Compound 39] | > 10000 | 5 to 100 | – | – | –
COc1ccc2c(Sc3ccccc3[N+](=O)[O-])cn(Cc3ccc(Cl)c(Cl)c3)c2c1 [Compound 14] | > 10000 | < 1000 | – | – | –
COc1ccc2c(Sc3ccccc3[N+](=O)[O-])cn(Cc3ccccn3)c2c1.Cl [Compound 10, 6-Methoxy-3-(2-nitro-phenylsulfanyl)-1-pyridin-2-ylmethyl-1H-indole monohydrochloride] | > 10000 | 5 to 100 | – | – | − (− <0.20)
COc1ccc2c(Sc3ccccc3[N+](=O)[O-])cn(Cc3ccc(Cl)s3)c2c1 [Compound 88] | > 10000 | 5 to 100 | – | – | –
O=C(c1ccc2c(Sc3ccccc3[N+](=O)[O-])cn(Cc3cc(F)cc(F)c3)c2c1)N1CCCC1 [Compound 27] | > 10000 | 5 to 100 | – | – | –
CC(=O)Nc1ccc2c(Sc3ccccc3[N+](=O)[O-])cn(Cc3cc(F)cc(F)c3)c2c1 [Compound 58, N-[1-(3,5-Difluoro-benzyl)-3-(2-nitro-phenylsulfanyl)-1H-indol-6-yl]-acetamide] | > 10000 | < 5 | – | – | –
COc1ccc2c(Sc3ccccc3[N+](=O)[O-])cn(Cc3ccc(F)cc3)c2c1 [Compound 83] | > 10000 | 5 to 100 | – | – | –
COc1ccc2c(Sc3ccccc3[N+](=O)[O-])cn(Cc3cccc(OC(F)(F)F)c3)c2c1 [Compound 77] | > 10000 | 5 to 100 | – | – | –
COc1cccc(Cn2cc(Sc3ccccc3[N+](=O)[O-])c3ccc(OC)cc32)c1 [Compound 72] | > 10000 | 5 to 100 | – | – | –
COc1ccc2c(Sc3ccccc3[N+](=O)[O-])cn(Cc3ccccc3Cl)c2c1 [Compound 3] | > 10000 | < 1000 | – | – | –
O=[N+]([O-])c1ccccc1Sc1cn(Cc2ccccc2)c2ccccc12 [Compound 90] | > 10000 | < 1000 | – | – | –
O=[N+]([O-])c1ccc2c(Sc3ccccc3[N+](=O)[O-])cn(Cc3cc(F)cc(F)c3)c2c1 [Compound 60] | – | – | > 10000 | < 5 | –
COc1ccc2c(Sc3ccccc3CO)cn(Cc3cc(F)cc(F)c3)c2c1 [Compound 16, {2-[1-(3,5-Difluoro-benzyl)-6-methoxy-1H-indol-3-ylsulfanyl]-phenyl}-methanol] | 5 to 100 | 5 to 100 | – | – | –
O=[N+]([O-])c1ccccc1Sc1cn(Cc2cc(F)cc(F)c2)c2ccc(O)cc12 [Compound 56] | – | < 5 | – | – | –
CNC(=O)c1ccccc1Sc1cn(Cc2cc(F)cc(F)c2)c2cc(OC)ccc12 [Compound 17, 2-[1-(3,5-Difluoro-benzyl)-6-methoxy-1H-indol-3-ylsulfanyl]-N-methyl-benzamide] | < 1000 | > 10000 | – | – | –
COc1ccc2c(Sc3ccccc3[N+](=O)[O-])cn(Cc3ccc(Cl)cc3)c2c1 [Compound 81] | < 5 | < 1000 | – | – | –
COc1ccc2c(Sc3ccccc3[N+](=O)[O-])cn(Cc3cccnc3)c2c1 [Compound 75] | > 10000 | < 5 | – | – | –

Reference: patent US8124647B2 (priority 2002, dated 2012)
